# Literature values, collected in patent US10570353B2, “Cleaning compositions” (Ascent IP Holdings, LLC, priority 2009, dated 2020).
# B1: LIPOLASE® 100L: lipase derived from Thermomyces lanuginosus, from Novo-Nordisk A/S, liquid solution (protein, UniProt O59952 23-291, looked up)
# Lipase: EVSQDLFNQFNLFAQYSAAAYCGKNNDAPAGTNITCTGNACPEVEKADATFLYSFEDSGVGDVTGFLALDNTNKLIVLSFRGSRSIENWIGNLNFDLKEINDICSGCRGHDGFTSSWRSVADTLRQKVEDAVREHPDYRVVFTGHSLGGALATVAGADLRGNGYDIDVFSYGAPRVGNRAFAEFLTVQTGGTLYRITHTNDIVPRLPPREFGYSHSSPEYWIKSGTLVPVTRNDIVKIEGIDATGGNNQPNIPDIPAHLWYFGLIGTCL
# modifications: liquid commercial formulation
# notes: lipase derived from Thermomyces lanuginosus, from Novo-Nordisk A/S, liquid solution
# B2: LIPOLASE® 100T: lipase derived from Thermomyces lanuginosus, from Novo-Nordisk A/S, granular solid (protein, UniProt O59952 23-291, looked up)
# Lipase: B1 Lipase
# modifications: granular commercial formulation
# notes: lipase derived from Thermomyces lanuginosus, from Novo-Nordisk A/S, granular solid
# How the values were obtained:
# [1] = identified from data sources
# [2] = trace constituents of Trilon M Liquid
# [3] = published toxicity data
# [4] = supplier's nominal lipase activity
molecule,measurement,setting,value
Cn1sccc1=O [2-Methyl-4-isothiazolin-3-one],skin sensitizer listing,[1],skin sensitizers
Cn1sc(Cl)cc1=O [5-Chloro-2-Methyl-4-isothiazolin-3-one],skin sensitizer listing,[1],skin sensitizers
C=O [formaldehyde],carcinogenicity listing,[2],suspected carcinogens
OO [hydrogen peroxide],skin sensitizer listing,[1],skin sensitizers
same,mutagenicity,[3],potential risk for mutagenicity
[Na+].[OH-] [sodium hydroxide],skin sensitizer listing,[1],skin sensitizers
O=C([O-])CN(CC(=O)[O-])CC(=O)[O-].[Na+].[Na+].[Na+] [trisodium nitrilotriacetate],carcinogenicity listing,[2],suspected carcinogens
cocamidopropyl betaine,skin sensitizer listing,[1],skin sensitizers
B1,nominal activity,[4],100 kLU/g
B2,nominal activity,[4],100 kLU/g
